Laboratory results published in the kinase profiling compilation of Christmann-Franck et al. (2016).

Tests used:
Test in all cases: KINOMEscan competition binding
Conditions in all cases: compound 10.0 µM
KIT (human) = KIT (human) (UniProt P10721)
[1] = tested on: KIT (human), P10721 [V559D]
TNK1 (human) = TNK1 (human) (UniProt Q13470)
CDK15 (human) = CDK15 (human) (UniProt Q96Q40)
DDR2 (human) = DDR2 (human) (UniProt Q16832)
EPHB2 (human) = EPHB2 (human) (UniProt P29323)
RPS6KA5 KD1 (human) = RPS6KA5 KD1 (human) (UniProt O75582)
MAPK14 (human) = MAPK14 (human) (UniProt Q16539)
[2] = tested on: EGFR (human), P00533 [746-750 del]
FGR (human) = FGR (human) (UniProt P09769)
[3] = tested on: ABL1 (human), P00519 [M351T]
CDKL2 (human) = CDKL2 (human) (UniProt Q92772)
TIE1 (human) = TIE1 (human) (UniProt P35590)
EGFR (human) = EGFR (human) (UniProt P00533)
CDK17 (human) = CDK17 (human) (UniProt Q00537)
[4] = tested on: ABL1 (human), P00519 [F317I]
[5] = target: JAK1 JH1 catalytic (human) (UniProt P23458)
[6] = target: TYK2 JH1 catalytic (human) (UniProt P29597)
MYO3A (human) = MYO3A (human) (UniProt Q8NEV4)
[7] = tested on: FLT3 (human), P36888 [D835Y]
[8] = tested on: FLT3 (human), P36888 [K663Q]
LTK (human) = LTK (human) (UniProt P29376)
CDK19 (human) = CDK19 (human) (UniProt Q9BWU1)
KDR (human) = KDR (human) (UniProt P35968)
CDK14 (human) = CDK14 (human) (UniProt O94921)
[9] = target: JAK2 JH1 catalytic (human) (UniProt O60674)
EPHA4 (human) = EPHA4 (human) (UniProt P54764)
[10] = tested on: EGFR (human), P00533 [A750P; 747-749 del]
CaMK1 (human) = CaMK1 (human) (UniProt Q14012)
IKBKB (human) = IKBKB (human) (UniProt O14920)
SYK (human) = SYK (human) (UniProt P43405)
EPHA2 (human) = EPHA2 (human) (UniProt P29317)
CAMK1D (human) = CAMK1D (human) (UniProt Q8IU85)
CDK7 (human) = CDK7 (human) (UniProt P50613)
LCK (human) = LCK (human) (UniProt P06239)
CDK16 (human) = CDK16 (human) (UniProt Q00536)
ALK (human) = ALK (human) (UniProt Q9UM73)
ULK3 (human) = ULK3 (human) (UniProt Q6PHR2)
PTK2B (human) = PTK2B (human) (UniProt Q14289)
FGFR2 (human) = FGFR2 (human) (UniProt P21802)
PRKACB (human) = PRKACB (human) (UniProt P22694)

Sequence of EPHA2 (human) (P29317 whole entry, looked up): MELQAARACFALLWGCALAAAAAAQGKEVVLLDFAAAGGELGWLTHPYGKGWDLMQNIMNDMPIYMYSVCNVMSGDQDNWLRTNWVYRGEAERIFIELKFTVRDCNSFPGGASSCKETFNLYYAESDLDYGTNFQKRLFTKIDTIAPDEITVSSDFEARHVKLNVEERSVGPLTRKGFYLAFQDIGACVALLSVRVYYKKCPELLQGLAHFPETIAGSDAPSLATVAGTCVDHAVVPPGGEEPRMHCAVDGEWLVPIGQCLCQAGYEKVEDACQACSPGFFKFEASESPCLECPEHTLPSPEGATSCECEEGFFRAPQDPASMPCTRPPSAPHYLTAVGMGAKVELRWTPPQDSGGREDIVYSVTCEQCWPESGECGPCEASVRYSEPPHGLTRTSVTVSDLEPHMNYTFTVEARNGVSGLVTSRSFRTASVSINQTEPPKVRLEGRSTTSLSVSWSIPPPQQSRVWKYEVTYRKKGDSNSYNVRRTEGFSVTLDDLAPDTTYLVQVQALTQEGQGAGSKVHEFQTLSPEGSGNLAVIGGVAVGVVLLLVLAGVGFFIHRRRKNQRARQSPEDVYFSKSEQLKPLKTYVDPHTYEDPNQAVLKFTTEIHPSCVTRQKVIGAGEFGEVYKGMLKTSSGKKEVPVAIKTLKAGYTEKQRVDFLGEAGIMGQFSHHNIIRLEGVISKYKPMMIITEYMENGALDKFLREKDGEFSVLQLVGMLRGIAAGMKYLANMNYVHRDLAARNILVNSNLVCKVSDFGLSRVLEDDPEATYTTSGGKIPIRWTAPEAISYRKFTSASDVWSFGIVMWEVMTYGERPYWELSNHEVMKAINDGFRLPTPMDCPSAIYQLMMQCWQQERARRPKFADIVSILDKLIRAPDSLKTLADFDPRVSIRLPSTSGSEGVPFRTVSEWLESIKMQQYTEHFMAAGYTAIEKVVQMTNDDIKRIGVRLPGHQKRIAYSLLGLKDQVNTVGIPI
Sequence of DDR2 (human) (Q16832 whole entry, looked up): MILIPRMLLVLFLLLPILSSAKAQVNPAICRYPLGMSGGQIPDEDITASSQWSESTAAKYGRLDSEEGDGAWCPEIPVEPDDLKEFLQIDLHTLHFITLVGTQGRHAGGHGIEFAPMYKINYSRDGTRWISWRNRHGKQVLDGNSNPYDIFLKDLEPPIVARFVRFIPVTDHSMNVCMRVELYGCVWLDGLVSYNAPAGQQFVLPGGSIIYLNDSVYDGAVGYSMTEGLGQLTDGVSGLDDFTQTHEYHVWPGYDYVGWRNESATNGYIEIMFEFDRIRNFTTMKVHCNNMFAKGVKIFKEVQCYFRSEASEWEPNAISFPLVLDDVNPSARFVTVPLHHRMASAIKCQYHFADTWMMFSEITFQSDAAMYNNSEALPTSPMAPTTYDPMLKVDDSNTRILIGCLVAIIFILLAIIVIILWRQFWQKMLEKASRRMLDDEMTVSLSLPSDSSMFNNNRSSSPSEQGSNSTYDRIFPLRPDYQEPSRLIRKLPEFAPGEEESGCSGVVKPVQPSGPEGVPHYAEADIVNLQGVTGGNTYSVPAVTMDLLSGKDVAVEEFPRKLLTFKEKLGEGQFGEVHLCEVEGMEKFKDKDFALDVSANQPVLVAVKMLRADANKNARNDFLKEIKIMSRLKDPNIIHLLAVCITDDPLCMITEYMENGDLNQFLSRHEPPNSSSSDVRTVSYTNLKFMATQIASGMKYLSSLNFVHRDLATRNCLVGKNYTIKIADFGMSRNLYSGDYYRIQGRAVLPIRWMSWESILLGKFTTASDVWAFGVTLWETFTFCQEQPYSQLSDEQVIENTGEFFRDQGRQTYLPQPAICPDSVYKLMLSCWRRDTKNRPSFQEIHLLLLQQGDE
Sequence of LTK (human) (P29376 whole entry, looked up): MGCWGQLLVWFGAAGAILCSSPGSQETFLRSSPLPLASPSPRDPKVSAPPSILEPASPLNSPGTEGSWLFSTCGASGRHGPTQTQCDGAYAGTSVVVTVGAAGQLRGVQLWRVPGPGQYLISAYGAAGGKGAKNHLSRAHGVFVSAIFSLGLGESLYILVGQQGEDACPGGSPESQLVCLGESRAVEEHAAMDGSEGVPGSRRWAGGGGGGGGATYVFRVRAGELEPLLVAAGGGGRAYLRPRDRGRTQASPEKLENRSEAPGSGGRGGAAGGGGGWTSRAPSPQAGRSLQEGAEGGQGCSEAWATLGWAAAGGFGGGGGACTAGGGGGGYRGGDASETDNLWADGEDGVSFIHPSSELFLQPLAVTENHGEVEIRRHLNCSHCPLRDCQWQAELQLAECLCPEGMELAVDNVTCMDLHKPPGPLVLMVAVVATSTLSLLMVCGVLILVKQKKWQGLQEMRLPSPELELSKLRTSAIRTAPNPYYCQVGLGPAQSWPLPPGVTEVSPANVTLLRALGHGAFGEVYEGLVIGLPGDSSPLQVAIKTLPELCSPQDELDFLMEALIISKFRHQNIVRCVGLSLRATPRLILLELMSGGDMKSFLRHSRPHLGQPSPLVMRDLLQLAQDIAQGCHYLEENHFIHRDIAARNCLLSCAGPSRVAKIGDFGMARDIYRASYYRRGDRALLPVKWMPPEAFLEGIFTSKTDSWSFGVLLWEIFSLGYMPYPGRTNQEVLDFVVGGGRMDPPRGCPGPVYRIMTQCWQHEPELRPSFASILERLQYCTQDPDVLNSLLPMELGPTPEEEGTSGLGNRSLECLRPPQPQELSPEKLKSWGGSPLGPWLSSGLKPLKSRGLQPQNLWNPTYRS
Sequence of CDKL2 (human) (Q92772 whole entry, looked up): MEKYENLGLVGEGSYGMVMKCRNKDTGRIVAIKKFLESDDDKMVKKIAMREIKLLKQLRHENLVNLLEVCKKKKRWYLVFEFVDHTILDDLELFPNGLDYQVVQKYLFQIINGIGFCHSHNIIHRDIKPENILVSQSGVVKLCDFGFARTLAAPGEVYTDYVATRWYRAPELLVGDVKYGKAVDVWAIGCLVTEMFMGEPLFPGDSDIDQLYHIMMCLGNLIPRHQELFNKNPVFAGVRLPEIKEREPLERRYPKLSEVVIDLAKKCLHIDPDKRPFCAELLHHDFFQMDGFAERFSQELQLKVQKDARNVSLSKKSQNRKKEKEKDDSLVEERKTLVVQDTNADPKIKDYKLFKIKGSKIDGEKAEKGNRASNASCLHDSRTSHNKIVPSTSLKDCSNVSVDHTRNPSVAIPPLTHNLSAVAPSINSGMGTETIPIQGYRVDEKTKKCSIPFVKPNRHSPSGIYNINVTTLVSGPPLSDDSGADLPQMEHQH
Sequence of KIT (human) (P10721 whole entry, looked up): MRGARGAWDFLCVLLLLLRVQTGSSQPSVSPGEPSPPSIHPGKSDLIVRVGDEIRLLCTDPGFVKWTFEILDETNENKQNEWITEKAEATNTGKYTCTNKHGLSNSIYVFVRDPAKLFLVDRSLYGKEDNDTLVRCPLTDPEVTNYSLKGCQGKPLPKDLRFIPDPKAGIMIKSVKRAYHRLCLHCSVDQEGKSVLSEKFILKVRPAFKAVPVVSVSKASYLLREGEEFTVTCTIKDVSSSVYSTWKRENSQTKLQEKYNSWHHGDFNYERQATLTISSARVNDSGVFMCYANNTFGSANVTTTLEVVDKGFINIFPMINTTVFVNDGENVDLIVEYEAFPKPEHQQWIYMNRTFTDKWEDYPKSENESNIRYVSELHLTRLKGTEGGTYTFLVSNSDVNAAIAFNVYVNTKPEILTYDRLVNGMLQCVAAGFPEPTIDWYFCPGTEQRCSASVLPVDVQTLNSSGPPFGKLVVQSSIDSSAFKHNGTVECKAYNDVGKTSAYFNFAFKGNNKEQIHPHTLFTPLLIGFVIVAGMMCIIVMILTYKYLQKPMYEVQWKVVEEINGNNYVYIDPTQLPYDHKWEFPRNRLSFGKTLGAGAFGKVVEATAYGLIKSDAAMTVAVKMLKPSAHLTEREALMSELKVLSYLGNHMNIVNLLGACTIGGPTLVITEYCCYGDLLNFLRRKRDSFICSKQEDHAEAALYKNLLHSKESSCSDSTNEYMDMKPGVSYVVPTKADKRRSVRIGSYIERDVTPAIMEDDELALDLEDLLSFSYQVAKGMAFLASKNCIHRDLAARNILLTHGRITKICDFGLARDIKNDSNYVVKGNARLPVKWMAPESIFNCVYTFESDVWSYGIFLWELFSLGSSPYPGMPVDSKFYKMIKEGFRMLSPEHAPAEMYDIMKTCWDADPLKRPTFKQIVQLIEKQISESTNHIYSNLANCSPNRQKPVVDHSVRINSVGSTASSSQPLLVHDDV
Sequence of CaMK1 (human) (Q14012 whole entry, looked up): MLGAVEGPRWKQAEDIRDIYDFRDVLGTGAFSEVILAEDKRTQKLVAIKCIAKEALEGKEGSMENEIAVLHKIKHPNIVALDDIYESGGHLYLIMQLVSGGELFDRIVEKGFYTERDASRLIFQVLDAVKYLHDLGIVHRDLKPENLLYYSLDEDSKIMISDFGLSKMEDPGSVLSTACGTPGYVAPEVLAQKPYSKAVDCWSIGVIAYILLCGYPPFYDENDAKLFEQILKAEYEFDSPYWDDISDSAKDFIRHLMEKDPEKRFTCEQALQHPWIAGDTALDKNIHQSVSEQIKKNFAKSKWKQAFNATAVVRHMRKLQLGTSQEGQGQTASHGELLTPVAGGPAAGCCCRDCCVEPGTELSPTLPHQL
Sequence of CDK19 (human) (Q9BWU1 whole entry, looked up): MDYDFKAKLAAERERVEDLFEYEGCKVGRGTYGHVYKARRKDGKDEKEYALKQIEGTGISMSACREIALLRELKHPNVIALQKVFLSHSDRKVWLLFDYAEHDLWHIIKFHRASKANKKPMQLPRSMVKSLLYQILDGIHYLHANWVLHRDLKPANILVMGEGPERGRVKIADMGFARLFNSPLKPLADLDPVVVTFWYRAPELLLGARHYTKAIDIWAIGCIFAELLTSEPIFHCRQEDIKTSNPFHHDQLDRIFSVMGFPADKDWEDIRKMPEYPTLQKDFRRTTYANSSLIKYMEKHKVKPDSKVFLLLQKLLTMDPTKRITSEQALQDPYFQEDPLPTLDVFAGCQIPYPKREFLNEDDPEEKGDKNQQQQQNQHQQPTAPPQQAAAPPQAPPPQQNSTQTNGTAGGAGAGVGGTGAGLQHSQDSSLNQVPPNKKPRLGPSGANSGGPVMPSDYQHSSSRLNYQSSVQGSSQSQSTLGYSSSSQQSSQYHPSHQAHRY

kinase still bound, per cent of control (KIT (human)): 0% | kinase still bound, per cent of control [1]: 0% | kinase still bound, per cent of control (TNK1 (human)): 0.35% | residual activity (CDK15 (human)): 6% | kinase still bound, per cent of control (DDR2 (human)): 5.1% | kinase still bound, per cent of control (EPHB2 (human)): 11% | kinase still bound, per cent of control (RPS6KA5 KD1 (human)): 4.7% | kinase still bound, per cent of control (MAPK14 (human)): 0% | kinase still bound, per cent of control [2]: 8.4% | kinase still bound, per cent of control (FGR (human)): 1.2% | kinase still bound, per cent of control [3]: 0.35% | residual activity (CDKL2 (human)): 0.9% | kinase still bound, per cent of control (TIE1 (human)): 0.95% | kinase still bound, per cent of control (EGFR (human)): 5.6% | residual activity (CDK17 (human)): 0.1% | kinase still bound, per cent of control [4]: 0.05% | kinase still bound, per cent of control [5]: 11% | kinase still bound, per cent of control [6]: 0% | kinase still bound, per cent of control (MYO3A (human)): 6.4% | kinase still bound, per cent of control [7]: 14% | kinase still bound, per cent of control [8]: 0% | kinase still bound, per cent of control (LTK (human)): 1.2% | residual activity (CDK19 (human)): 0.1% | kinase still bound, per cent of control (KDR (human)): 1.5% | residual activity (CDK14 (human)): 0.4% | kinase still bound, per cent of control [9]: 11% | kinase still bound, per cent of control (EPHA4 (human)): 5.8% | kinase still bound, per cent of control [10]: 1.5% | kinase still bound, per cent of control (CaMK1 (human)): 0% | kinase still bound, per cent of control (IKBKB (human)): 24% | kinase still bound, per cent of control (SYK (human)): 6.2% | kinase still bound, per cent of control (EPHA2 (human)): 3.1% | kinase still bound, per cent of control (CAMK1D (human)): 6.2% | residual activity (CDK7 (human)): 2.4% | kinase still bound, per cent of control (LCK (human)): 0.8% | residual activity (CDK16 (human)): 11% | kinase still bound, per cent of control (ALK (human)): 0.55% | kinase still bound, per cent of control (ULK3 (human)): 0.1% | kinase still bound, per cent of control (PTK2B (human)): 2.1% | kinase still bound, per cent of control (FGFR2 (human)): 1.4% | residual activity (PRKACB (human)): 14%
Structure (SMILES): CCN1CCN(Cc2ccc(NC(=O)c3ccc(C)c(Oc4ccnc5[nH]ccc45)c3)cc2C(F)(F)F)CC1
